Source: patent US20070218475A1, “Efficient drug screening for protein targets” (priority 2005, published 2007)

Tests used:
SmoΔCT = molecular target: T1, SmoΔCT (Mus musculus, UniProt P56726); assay: Fluorescence (BODIPY-cyclopamine) binding assay, Cos-1 cells expressing SmoΔCT; conditions: Cos-1 cells, flow cytometry
T1 construct: expressed in transfected cells; host or cells: Cos-1
T1 sequence (P56726 33-555 limits assumed): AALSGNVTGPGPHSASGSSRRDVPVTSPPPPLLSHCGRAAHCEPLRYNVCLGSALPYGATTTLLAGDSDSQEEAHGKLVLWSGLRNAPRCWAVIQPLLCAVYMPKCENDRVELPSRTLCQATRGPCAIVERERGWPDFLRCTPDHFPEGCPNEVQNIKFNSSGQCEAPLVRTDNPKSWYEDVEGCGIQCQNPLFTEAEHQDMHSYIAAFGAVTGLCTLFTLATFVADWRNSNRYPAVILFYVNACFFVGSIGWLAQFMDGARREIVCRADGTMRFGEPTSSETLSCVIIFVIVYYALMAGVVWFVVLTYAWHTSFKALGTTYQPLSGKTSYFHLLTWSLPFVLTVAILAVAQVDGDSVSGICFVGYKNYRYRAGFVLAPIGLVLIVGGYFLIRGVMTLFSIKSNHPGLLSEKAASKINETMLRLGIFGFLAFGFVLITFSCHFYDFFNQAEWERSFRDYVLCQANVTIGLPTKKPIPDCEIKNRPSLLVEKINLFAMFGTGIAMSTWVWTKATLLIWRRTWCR
Text: (§1) Preparation of Smo fusion proteins and deletion mutants: Both Smo-Myc3 and SmoA1-Myc3 are C-terminally fused to three consecutive Myc epitopes. […] Smo-GFP is comprised of green fluorescent protein fused to the C-terminus of Smo, and the fluorescent proteins in SmoA1-YFP, and SmoA1-GFP are similarly fused to the C-terminus of SmoA1. All constructs were generated by PCR and verified by DNA sequencing.
(§2) For flow cytometry experiments, the cells were then trypsinized, collected by centrifugation, resuspended in phenol red-free DMEM containing 0.5% bovine calf serum, and analyzed for green fluorescence (FACScan, Beckton Dickinson). […] Curve fitting analysis was performed with Kaleidograph (Synergy Software).

SmoA1 = molecular target: T2, SmoA1 (Mus musculus, UniProt P56726, W539L); assay: Fluorescence (BODIPY-cyclopamine) binding assay, SmoA1-expressing Cos-1 cells; conditions: flow cytometry
T2 construct: expressed in transfected cells; host or cells: Cos-1
T2 sequence (P56726 33-793 W539L): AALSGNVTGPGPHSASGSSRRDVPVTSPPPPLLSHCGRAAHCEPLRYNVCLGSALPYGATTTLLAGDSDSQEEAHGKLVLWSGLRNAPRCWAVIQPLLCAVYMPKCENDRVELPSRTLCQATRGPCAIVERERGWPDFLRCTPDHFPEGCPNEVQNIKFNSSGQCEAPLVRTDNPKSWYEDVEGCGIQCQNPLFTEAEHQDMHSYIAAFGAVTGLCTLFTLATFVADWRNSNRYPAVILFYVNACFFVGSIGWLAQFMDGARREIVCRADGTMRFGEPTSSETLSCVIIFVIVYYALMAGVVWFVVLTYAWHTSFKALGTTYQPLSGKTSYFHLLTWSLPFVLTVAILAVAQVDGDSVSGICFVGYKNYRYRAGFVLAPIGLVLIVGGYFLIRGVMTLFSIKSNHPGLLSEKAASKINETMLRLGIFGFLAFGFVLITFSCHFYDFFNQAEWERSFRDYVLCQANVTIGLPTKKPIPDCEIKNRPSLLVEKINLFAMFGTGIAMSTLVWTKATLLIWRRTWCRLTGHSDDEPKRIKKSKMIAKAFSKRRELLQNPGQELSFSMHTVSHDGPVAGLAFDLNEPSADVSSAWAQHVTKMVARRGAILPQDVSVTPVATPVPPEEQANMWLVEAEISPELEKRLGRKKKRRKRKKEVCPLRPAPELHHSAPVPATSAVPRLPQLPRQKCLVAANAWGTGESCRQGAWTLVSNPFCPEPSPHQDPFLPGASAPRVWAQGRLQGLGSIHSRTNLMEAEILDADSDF
Protocol: (§3) Fluorescence binding assay: Cos-1 cells were transfected in 6-well plates with the described expression vectors (1 μg/well), and after two days, incubated in DMEM containing 10% fetal bovine serum, 5 nM BODIPY-cyclopamine, and various concentrations of the indicated competitors for 4-6 h at 37° C. For flow cytometry experiments, the cells were then trypsinized, collected by centrifugation, resuspended in phenol red-free DMEM containing 0.5% bovine calf serum, and analyzed for green fluorescence (FACScan, Beckton Dickinson). A fluorescence intensity range that excludes non-transfected cells was then selected for quantification of specific BODIPY-cyclopamine binding (see brackets in FIGS. 2C, 2D, and 3A). Curve fitting analysis was performed with Kaleidograph (Synergy Software).

SmoΔCRD = molecular target: T3, SmoΔCRD (Mus musculus, UniProt P56726, DEL68-182); assay: Fluorescence (BODIPY-cyclopamine) binding assay, Cos-1 cells expressing SmoΔCRD; conditions: Cos-1 cells, flow cytometry
T3 construct: expressed in transfected cells; host or cells: Cos-1
T3 sequence (P56726 with tags, fused parts or gaps DEL68-182): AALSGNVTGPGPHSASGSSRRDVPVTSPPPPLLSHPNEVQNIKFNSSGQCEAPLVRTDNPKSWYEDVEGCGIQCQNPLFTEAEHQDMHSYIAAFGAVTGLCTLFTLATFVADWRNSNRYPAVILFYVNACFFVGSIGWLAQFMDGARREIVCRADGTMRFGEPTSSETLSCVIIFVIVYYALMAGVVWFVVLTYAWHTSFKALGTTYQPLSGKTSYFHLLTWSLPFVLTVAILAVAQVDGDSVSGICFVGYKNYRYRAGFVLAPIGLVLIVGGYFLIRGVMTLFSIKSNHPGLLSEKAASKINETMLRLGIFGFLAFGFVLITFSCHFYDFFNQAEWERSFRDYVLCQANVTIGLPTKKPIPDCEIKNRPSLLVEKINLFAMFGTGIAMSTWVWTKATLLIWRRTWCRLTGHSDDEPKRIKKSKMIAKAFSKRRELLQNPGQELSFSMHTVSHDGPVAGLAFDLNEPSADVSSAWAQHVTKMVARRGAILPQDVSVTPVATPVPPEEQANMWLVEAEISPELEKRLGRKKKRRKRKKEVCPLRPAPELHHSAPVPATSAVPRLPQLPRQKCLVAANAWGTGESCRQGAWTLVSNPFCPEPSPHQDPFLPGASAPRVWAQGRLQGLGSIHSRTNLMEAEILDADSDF
Text: as §1, §2

mouse Frizzled7 protein = molecular target: T4, mouse Frizzled7 protein (Mus musculus, UniProt Q61090); assay: Fluorescence (BODIPY-cyclopamine) binding assay, Cos-1 cells expressing Frizzled7; conditions: flow cytometry
T4 construct: expressed in transfected cells; host or cells: Cos-1
Protocol: as §3

Smo = molecular target: T5, Smo (Mus musculus, UniProt P56726); assay: Fluorescence (BODIPY-cyclopamine) binding assay, Smo-expressing Cos-1 cells; conditions: Cos-1 cells transiently transfected, fluorescence microscopy and flow cytometry
T5 construct: expressed in transfected cells; host or cells: Cos-1
T5 sequence (P56726 33-793): as the sequence (P56726 33-793 W539L) above, with L507W counted along it
Protocol: as §2

Shh signaling = assay: Shh-LIGHT2 assay for Hh pathway activation (Gli-dependent luciferase reporter); assay type: cell-based, mouse; conditions: Shh-LIGHT2 mouse cultured cell assay; read-out: IC50, inhibition of Shh signaling
mouse Ptch = molecular target: T6, mouse Ptch (Mus musculus, UniProt Q61115); assay: Fluorescence (BODIPY-cyclopamine) binding assay, Cos-1 cells expressing Ptch; conditions: flow cytometry
T6 construct: expressed in transfected cells; host or cells: Cos-1
T6 sequence (Q61115 1-1434): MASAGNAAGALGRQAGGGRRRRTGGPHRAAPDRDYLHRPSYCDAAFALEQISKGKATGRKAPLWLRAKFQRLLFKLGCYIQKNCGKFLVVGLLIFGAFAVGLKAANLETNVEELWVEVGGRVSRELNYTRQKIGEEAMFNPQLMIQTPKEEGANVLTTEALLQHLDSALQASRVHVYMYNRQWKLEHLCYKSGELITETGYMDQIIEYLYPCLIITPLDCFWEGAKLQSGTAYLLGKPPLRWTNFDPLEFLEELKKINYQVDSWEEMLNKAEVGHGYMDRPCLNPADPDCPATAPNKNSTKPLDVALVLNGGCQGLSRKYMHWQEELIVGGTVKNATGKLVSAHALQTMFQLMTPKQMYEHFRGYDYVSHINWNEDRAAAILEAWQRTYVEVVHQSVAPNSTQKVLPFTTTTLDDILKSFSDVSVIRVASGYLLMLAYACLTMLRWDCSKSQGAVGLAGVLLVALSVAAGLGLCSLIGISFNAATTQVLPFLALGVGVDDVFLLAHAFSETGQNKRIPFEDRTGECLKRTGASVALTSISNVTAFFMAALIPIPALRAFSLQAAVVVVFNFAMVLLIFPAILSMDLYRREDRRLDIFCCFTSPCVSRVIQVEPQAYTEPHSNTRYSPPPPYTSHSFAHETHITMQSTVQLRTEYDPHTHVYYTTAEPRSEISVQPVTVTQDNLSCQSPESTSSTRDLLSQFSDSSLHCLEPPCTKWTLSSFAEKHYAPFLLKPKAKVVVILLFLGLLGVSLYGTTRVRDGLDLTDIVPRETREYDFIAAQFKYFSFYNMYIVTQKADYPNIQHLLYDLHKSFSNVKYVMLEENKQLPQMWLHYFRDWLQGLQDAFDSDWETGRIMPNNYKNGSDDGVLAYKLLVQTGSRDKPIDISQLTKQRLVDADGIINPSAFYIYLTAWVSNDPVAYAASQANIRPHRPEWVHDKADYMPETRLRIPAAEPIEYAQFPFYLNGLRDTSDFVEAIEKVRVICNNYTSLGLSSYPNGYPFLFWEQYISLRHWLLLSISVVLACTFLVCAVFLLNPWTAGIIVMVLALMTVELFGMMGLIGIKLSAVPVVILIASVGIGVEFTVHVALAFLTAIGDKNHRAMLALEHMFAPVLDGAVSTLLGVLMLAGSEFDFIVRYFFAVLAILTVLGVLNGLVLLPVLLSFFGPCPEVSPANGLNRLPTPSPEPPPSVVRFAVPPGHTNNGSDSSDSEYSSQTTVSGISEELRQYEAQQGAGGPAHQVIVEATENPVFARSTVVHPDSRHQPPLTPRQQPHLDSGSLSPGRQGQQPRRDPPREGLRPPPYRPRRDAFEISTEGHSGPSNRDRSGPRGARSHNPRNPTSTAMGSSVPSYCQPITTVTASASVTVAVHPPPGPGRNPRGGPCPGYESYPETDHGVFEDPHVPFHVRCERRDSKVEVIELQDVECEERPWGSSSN
Protocol: as §3

CC1=C2CC3C(CC=C4C[C@@H](O)CCC43C)C2CCC12O[C@@H]1CC(C)CN(CCNC(=O)CCCCCNC(=O)CCC3=[N+]4C(=Cc5c(C)cc(C)n5[B-]4(F)F)C=C3)C1C2C (stereo partly shown) [BODIPY-cyclopamine]
binding to cells expressing SmoΔCT (SmoΔCT): can bind
binding to cells expressing SmoA1 (SmoA1): did not bind
binding to cells expressing SmoΔCRD (SmoΔCRD): can bind
binding to cells expressing mouse Frizzled7 (mouse Frizzled7 protein): did not bind
binding to Smo-expressing cells (Smo): bound with high capacity
IC50 (Shh signaling): 150 nM
binding to cells expressing mouse Ptch (mouse Ptch): did not bind
